# Test results as given in patent US20210346663A1, “METHODS FOR IMPROVING DRUG EFFICACY” (Nuvaira, Inc., priority 2012, published 2021).
# Experiment: Pulmonary function after vagus nerve disruption followed by drug administration in patients with obstructive lung disease
# Type: in vivo
# Settings: drug given after nerve activity-modulating treatment
# Description: For two treatments with similar mechanisms of action (e.g., vagus nerve disruption that eliminates or reduces acetylcholine production and pharmacological inhibition of acetylcholine production or release), one would expect that the combination of such treatments would result in less of an improvement than the combination of two treatments with different/complementary mechanisms of action.
structure (smiles),measurement,value
CC(C)[N+]1(C)[C@@H]2CC[C@H]1C[C@@H](OC(=O)C(CO)c1ccccc1)C2 (stereo partly shown) [ipratropium bromide],effect on lung functions of administration after vagus nerve disruption,additive effect
